According to ChEMBL document CHEMBL3232987, “Investigation of Ugi-4CC derived 1H-tetrazol-5-yl-(aryl) methyl piperazinyl-6-fluoro-4-oxo-1,4-dihydroquinoline-3-carboxylic acid: synthesis, biology and 3D-QSAR analysis” (Eur J Med Chem, 2014):
In brackets after ≈: the same amount, converted by molar mass.

How the values were obtained:
Escherichia coli [1] = assay: Antibacterial activity against Escherichia coli by NCCLS two-fold dilution method; format: functional
Staphylococcus aureus [2] = assay: Antibacterial activity against gentamicin-resistant Staphylococcus aureus ATCC 33592 by NCCLS two-fold dilution method; format: functional
Staphylococcus aureus [3] = assay: Antibacterial activity against Staphylococcus aureus ATCC 25923 by NCCLS two-fold dilution method; format: functional; conditions: Staphylococcus aureus, ATCC 25923
Klebsiella pneumoniae [4] = assay: Antibacterial activity against Klebsiella pneumoniae by NCCLS two-fold dilution method; format: functional
Staphylococcus aureus [5] = assay: Antibacterial activity against methicillin-resistant Staphylococcus aureus ATCC 700699 after 24 hrs by spectrophotometric analysis; format: functional, organism-based; conditions: Staphylococcus aureus, ATCC 700699, 24 h
Escherichia coli [6] = assay: Antibacterial activity against Escherichia coli after 24 hrs by spectrophotometric analysis; format: functional, organism-based; conditions: Escherichia coli, 24 h
Staphylococcus aureus [7] = assay: Antibacterial activity against gentamicin-resistant Staphylococcus aureus ATCC 33592 after 24 hrs by spectrophotometric analysis; format: functional, organism-based; conditions: Staphylococcus aureus, ATCC 33592, 24 h
Staphylococcus aureus [8] = assay: Antibacterial activity against Staphylococcus aureus ATCC 29213 after 24 hrs by spectrophotometric analysis; format: functional, organism-based; conditions: Staphylococcus aureus, ATCC 29213, 24 h
Klebsiella pneumoniae [9] = assay: Antibacterial activity against Klebsiella pneumoniae after 24 hrs by spectrophotometric analysis; format: functional, organism-based; conditions: Klebsiella pneumoniae, 24 h
L929 [10] = assay: Cytotoxicity against mouse L929 cells assessed as cell viability up to MIC 0.78 ug/ml after 24 hrs by MTT assay; format: cell-based; conditions: l929, 24 h
Staphylococcus aureus [11] = assay: Antibacterial activity against methicillin-resistant Staphylococcus aureus ATCC 700699 by NCCLS two-fold dilution method; format: functional
Staphylococcus aureus [12] = assay: Antibacterial activity against Staphylococcus aureus ATCC 29213 by NCCLS two-fold dilution method; format: functional
L929 [13] = assay: Cytotoxicity against mouse L929 cells assessed as cell morphological changes at 12.5 to 50 ug/ml after 24 hrs by giemsa staining based phase contrast microscopy; conditions: l929, 24 h
L929 [14] = assay: Cytotoxicity against mouse L929 cells assessed as cell viability up to MIC 0.39 ug/ml after 24 hrs by MTT assay; format: cell-based; conditions: l929, 24 h
Staphylococcus aureus [15] = assay: Antibacterial activity against Staphylococcus aureus ATCC 25923 after 24 hrs by spectrophotometric analysis; format: functional, organism-based; conditions: Staphylococcus aureus, ATCC 25923, 24 h

CCn1cc(C(=O)O)c(=O)c2cc(F)c(N3CCN(C(c4ccco4)c4nnnn4C(C)(C)C)CC3)cc21 (stereo unspecified)
MIC (Escherichia coli [1]): 6.25 µg/mL (≈ 11.9 µM)
MIC (Staphylococcus aureus [2]): 0.78 µg/mL (≈ 1.49 µM)
MIC (Staphylococcus aureus [3]): 0.78 µg/mL (≈ 1.49 µM)
MIC (Klebsiella pneumoniae [4]): 12.5 µg/mL (≈ 23.9 µM)
MIC (Staphylococcus aureus [5]): 46.9 µg/mL (≈ 89.6 µM)
IC50 (Staphylococcus aureus [5]; read-out: IC50): 24.6 µg/mL (≈ 47 µM)
MIC (Escherichia coli [6]): 4.2 µg/mL (≈ 8.02 µM)
IC50 (Escherichia coli [6]; read-out: IC50): 2.9 µg/mL (≈ 5.54 µM)
MIC (Staphylococcus aureus [7]): 0.5 µg/mL (≈ 0.955 µM)
IC50 (Staphylococcus aureus [7]; read-out: IC50): 0.2 µg/mL (≈ 0.382 µM)
MIC (Staphylococcus aureus [8]): 0.6 µg/mL (≈ 1.15 µM)
IC50 (Staphylococcus aureus [8]; read-out: IC50): 0.2 µg/mL (≈ 0.382 µM)
MIC (Klebsiella pneumoniae [9]): 10.1 µg/mL (≈ 19.3 µM)
IC50 (Klebsiella pneumoniae [9]; read-out: IC50): 5.3 µg/mL (≈ 10.1 µM)
Activity (L929 [10]): Non-toxic
MIC (Staphylococcus aureus [11]): 50 µg/mL (≈ 95.5 µM)
MIC (Staphylococcus aureus [12]): 0.78 µg/mL (≈ 1.49 µM)
Activity (L929 [13]): Non-toxic
Activity (L929 [14]): Non-toxic
MIC (Staphylococcus aureus [15]): 0.4 µg/mL (≈ 0.764 µM)
IC50 (Staphylococcus aureus [15]; read-out: IC50): 0.3 µg/mL (≈ 0.573 µM)
